Molecular target: T1, B1R receptor of the rat (rB1R) (Rattus norvegicus, UniProt P97583)
T1 construct: expressed in transfected cells; host or cells: CHO K1 cells
T1 sequence (P97583 1-337): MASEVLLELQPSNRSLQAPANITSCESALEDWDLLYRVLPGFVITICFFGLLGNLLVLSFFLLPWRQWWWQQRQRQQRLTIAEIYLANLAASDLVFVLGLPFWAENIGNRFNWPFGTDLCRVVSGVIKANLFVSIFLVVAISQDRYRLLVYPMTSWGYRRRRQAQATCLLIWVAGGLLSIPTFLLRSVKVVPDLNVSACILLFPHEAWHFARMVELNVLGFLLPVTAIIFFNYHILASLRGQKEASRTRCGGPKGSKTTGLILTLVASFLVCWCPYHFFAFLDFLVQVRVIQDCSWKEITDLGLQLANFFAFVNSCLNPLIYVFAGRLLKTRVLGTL
Experiment: Functional investigation on the bradykinin 1 receptor (B1R), FLIPR Ca2+ assay, rB1R cells
Type: cell-based
Details: CHO-K1, 10 μM test substance; CHO K1 cells with rat B1R; agonist Des-Arg9 bradykinin; % of maximum achievable inhibition; read-out: B1R antagonism, rat [10 μM] % inhibition
In short: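 Cells plated at 20,000-35,000/well, incubated overnight at 37° C, loaded with Fluo-4 (2.13 μM, 60 min, 37° C, or 2.5 μM in buffer A), then read in FLIPR (λex 488, λem 540 nm). Agonist: Lys-Des-[MUT] bradykinin (0.5 nM) or Des-[MUT] bradykinin (100 nM). IC50 from % inhibition versus maximum, n=2-3, N>=2.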

Compound: Cc1cc(S(=O)(=O)Nc2ccc3ccn(CCC(=O)NCCC4CCN(c5ccncc5)CC4)c3c2)c(C)cc1Cl [G_CC-71, 3-[6-[[(4-Chloro-2,5-dimethyl-phenyl)sulfonyl]amino]-1H-indol-1-yl]-N-[2-(1-pyridin-4-yl-piperidin-4-yl)-ethyl]-propionamide]
- inhibition at 10 µM: 54%

Compound: O=C(CCn1ccc2ccc(N3Cc4cccc(Cl)c4C3=O)cc21)NCCC1CCN(c2ccncc2)CC1 [G_CC-72, 3-[6-(4-Chloro-3-oxo-1,2-dihydro-isoindol-2-yl)-1H-indol-1-yl]-N-[2-(1-pyridin-4-yl-piperidin-4-yl)-ethyl]-propionamide]
- inhibition at 10 µM: 71%

Compound: Cc1cc(S(=O)(=O)Nc2cccc3ccn(CCC(=O)NCCN4CCC(c5cccs5)(N(C)C)CC4)c23)c(C)cc1Cl [G_CC-73, 3-[7-[[(4-Chloro-2,5-dimethyl-phenyl)sulfonyl]amino]-1H-indol-1-yl]-N-[2-(4-dimethylamino-4-thiophen-2-yl-piperidin-1-yl)-ethyl]-propionamide]
- inhibition at 10 µM: 55%

Compound: Cc1cc(S(=O)(=O)Nc2ccc3ccn(CCC(=O)NCCN4CCC(c5cccs5)(N(C)C)CC4)c3c2)c(C)cc1Cl [G_CC-74, 3-[6-[[(4-Chloro-2,5-dimethyl-phenyl)sulfonyl]amino]-1H-indol-1-yl]-N-[2-(4-dimethylamino-4-thiophen-2-yl-piperidin-1-yl)-ethyl]-propionamide]
- inhibition at 10 µM: 51%

Compound: COc1cc(C)c(S(=O)(=O)Nc2cccc3ccn(CC(=O)N(C)CCC4CCC(c5ccccc5)(N(C)C)CC4)c23)c(C)c1 (centres unmarked) [G_CC-77, N-[2-(4-Dimethylamino-4-phenyl-cyclohexyl)-ethyl]-2-[7-[[(4-methoxy-2,6-dimethyl-phenyl)sulfonyl]amino]-1H-indol-1-yl]-N-methyl-acetamide]
- inhibition at 10 µM: 104%

Compound: COc1cc(C)c(S(=O)(=O)Nc2ccc3ccn(CCC(=O)N(C)CCN4CCC(c5cccc(F)c5)(N5CCN(C)CC5)CC4)c3c2)c(C)c1 [G_CC-81, N-[2-[4-(3-Fluorophenyl)-4-(4-methyl-piperazin-1-yl)-piperidin-1-yl]-ethyl]-3-[6-[[(4-methoxy-2,6-dimethyl-phenyl)sulfonyl]amino]-1H-indol-1-yl]-N-methyl-propionamide]
- inhibition at 10 µM: 103%

Compound: COc1cc(C)c(S(=O)(=O)Nc2cccc3ccn(CC(=O)N4CCC(c5cccc(F)c5)(N5CCN(C)CC5)CC4)c23)c(C)c1 [G_CC-84, N-[1-[2-[4-(3-Fluorophenyl)-4-(4-methyl-piperazin-1-yl)-piperidin-1-yl]-2-oxo-ethyl]-1H-indol-7-yl]-4-methoxy-2,6-dimethyl-benzenesulfonic acid amide]
- inhibition at 10 µM: 102%

Compound: COc1cc(C)c(S(=O)(=O)Nc2cccc3ccn(CC(=O)N4CCC(Oc5ccncc5)CC4)c23)c(C)c1 [G_CC-92, 4-Methoxy-2,6-dimethyl-N-[1-[2-oxo-2-(4-pyridin-4-yloxy-piperidin-1-yl)-ethyl]-1H-indol-7-yl]-benzenesulfonic acid amide]
- inhibition at 10 µM: 98%

Compound: COc1cc(C)c(S(=O)(=O)Nc2ccc3ccn(CC(=O)N(C)CCC4CCC(c5ccccc5)(N(C)C)CC4)c3c2)c(C)c1 (centres unmarked) [G_CC-95, N-[2-(4-Dimethylamino-4-phenyl-cyclohexyl)-ethyl]-2-[6-[[(4-methoxy-2,6-dimethyl-phenyl)sulfonyl]amino]-1H-indol-1-yl]-N-methyl-acetamide]
- inhibition at 10 µM: 96%

Compound: COc1cc(C)c(S(=O)(=O)Nc2ccc3ccn(CC(=O)N(C)CCN4CCC(c5cccc(F)c5)(N5CCN(C)CC5)CC4)c3c2)c(C)c1 [G_CC-99, N-[2-[4-(3-Fluorophenyl)-4-(4-methyl-piperazin-1-yl)-piperidin-1-yl]-ethyl]-2-[6-[[(4-methoxy-2,6-dimethyl-phenyl)sulfonyl]amino]-1H-indol-1-yl]-N-methyl-acetamide]
- inhibition at 10 µM: 93%

Compound: COc1cc(C)c(S(=O)(=O)Nc2cccc3ccn(CC(=O)N(C)CCN4CCC(c5cccc(F)c5)(N5CCN(C)CC5)CC4)c23)c(C)c1 [G_CC-102, N-[2-[4-(3-Fluorophenyl)-4-(4-methyl-piperazin-1-yl)-piperidin-1-yl]-ethyl]-2-[7-[[(4-methoxy-2,6-dimethyl-phenyl)sulfonyl]amino]-1H-indol-1-yl]-N-methyl-acetamide]
- inhibition at 10 µM: 89%

Compound: O=C(Cn1ccc2ccc(N3Cc4cccc(Cl)c4C3=O)cc21)NCCC1CCN(c2ccncc2)CC1 [G_CC-103, 2-[6-(4-Chloro-3-oxo-1,2-dihydro-isoindol-2-yl)-1H-indol-1-yl]-N-[2-(1-pyridin-4-yl-piperidin-4-yl)-ethyl]-acetamide]
- inhibition at 10 µM: 88%

Compound: O=C(CCn1ccc2cccc(N3Cc4cccc(Cl)c4C3=O)c21)N1CCC2(CC1)CCN(c1ccncc1)CC2 [G_CC-106, 7-Chloro-2-[1-[3-oxo-3-(3-pyridin-4-yl-3,9-diazaspiro[5.5]undecan-9-yl)-propyl]-1H-indol-7-yl]-2,3-dihydro-isoindol-1-one]
- inhibition at 10 µM: 86%

Compound: COc1cc(C)c(S(=O)(=O)Nc2ccc3ccn(CC(=O)N4CCC(CNC(=O)c5ccncc5)(N5CCN(C)CC5)CC4)c3c2)c(C)c1 [G_CC-108, N-[[1-[2-[6-[[(4-Methoxy-2,6-dimethyl-phenyl)sulfonyl]amino]-1H-indol-1-yl]-acetyl]-4-(4-methyl-piperazin-1-yl)-piperidin-4-yl]-methyl]-pyridine-4-carboxylic acid amide]
- inhibition at 10 µM: 84%

Compound: O=C(Cn1ccc2ccc(N3Cc4cccc(Cl)c4C3=O)cc21)NCC1CCN(c2ccncc2)CC1 [G_CC-111, 2-[6-(4-Chloro-3-oxo-1,2-dihydro-isoindol-2-yl)-1H-indol-1-yl]-N-[(1-pyridin-4-yl-piperidin-4-yl)-methyl]-acetamide]
- inhibition at 10 µM: 81%

Compound: CN1CCN(C2(c3cccc(F)c3)CCN(CCN(C)C(=O)Cn3ccc4ccc(N5Cc6cccc(Cl)c6C5=O)cc43)CC2)CC1 [G_CC-113, 2-[6-(4-Chloro-3-oxo-1,2-dihydro-isoindol-2-yl)-1H-indol-1-yl]-N-[2-[4-(3-fluorophenyl)-4-(4-methyl-piperazin-1-yl)-piperidin-1-yl]-ethyl]-N-methyl-acetamide]
- inhibition at 10 µM: 78%

Compound: COc1cc(C)c(S(=O)(=O)Nc2ccc3ccn(CCC(=O)N(C)CCCN4CCN(c5ccncc5)CC4)c3c2)c(C)c1 [G_CC-116, 3-[6-[[(4-Methoxy-2,6-dimethyl-phenyl)sulfonyl]amino]-1H-indol-1-yl]-N-methyl-N-[3-(4-pyridin-4-yl-piperazin-1-yl)-propyl]-propionamide]
- inhibition at 10 µM: 74%

Compound: COc1cc(C)c(S(=O)(=O)Nc2ccc3ccn(CCC(=O)N(C)CCC4CCC(c5ccccc5)(N(C)C)CC4)c3c2)c(C)c1 (centres unmarked) [G_CC-117, N-[2-(4-Dimethylamino-4-phenyl-cyclohexyl)-ethyl]-3-[6-[[(4-methoxy-2,6-dimethyl-phenyl)sulfonyl]amino]-1H-indol-1-yl]-N-methyl-propionamide]
- inhibition at 10 µM: 74%

Compound: CN(CCCN1CCN(c2ccncc2)CC1)C(=O)CCn1ccc2ccc(N3Cc4cccc(Cl)c4C3=O)cc21 [G_CC-119, 3-[6-(4-Chloro-3-oxo-1,2-dihydro-isoindol-2-yl)-1H-indol-1-yl]-N-methyl-N-[3-(4-pyridin-4-yl-piperazin-1-yl)-propyl]-propionamide]
- inhibition at 10 µM: 72%

Compound: COc1cc(C)c(S(=O)(=O)Nc2ccc3ccn(CC(=O)N4CCC(CCN5CCCC5)CC4)c3c2)c(C)c1 [G_CC-120, 4-Methoxy-2,6-dimethyl-N-[1-[2-oxo-2-[4-(2-pyrrolidin-1-yl-ethyl)-piperidin-1-yl]-ethyl]-1H-indol-6-yl]-benzenesulfonic acid amide]
- inhibition at 10 µM: 72%

— patent US8492559B2, “Substituted indole compounds” (Gruenenthal GmbH, priority 2009, dated 2013)
